Like-named read-outs stand apart in the source and are kept apart here.
Assays:
mutant Wza ΔP106-A107 = mutant Wza ΔP106-A107 (Escherichia coli, UniProt Q9X4B7, DEL106-107); test: Single-channel electrical recording, mutant Wza ΔP106-A107; type: binding, E. coli; conditions: n = 3, read-out: Dissociation constant (Kd) with mutant Wza pore
mutant Wza Y110G = mutant Wza Y110G (Escherichia coli, UniProt Q9X4B7, Y110G); test: Single-channel electrical recording, mutant Wza Y110G; type: binding, E. coli; conditions: n = 3, read-out: Dissociation constant (Kd) with mutant Wza pore
Procedure: Thirteen commercial cyclodextrins (CDs) were tested for their ability to block WT-Wza and the mutant Y110G/K375C (Table 1) including, neutral, negatively charged or positively charged cyclodextrins. […]

mutant Wza Y110G/Y373C = mutant Wza Y110G/Y373C (Escherichia coli, UniProt Q9X4B7, Y110G/Y373C); test: Single-channel electrical recording, mutant Wza Y110G/Y373C; type: binding, E. coli; conditions: 2M KCl buffer pH 7.5, +3 mV, n = 3, read-out: Dissociation constant (Kd) with mutant Wza pore
[1] = test system: K30 polysaccharide transport through Wza; test: Inhibition of K30 polysaccharide transport through Wza, phenol extraction and carbohydrate staining; type: cell-based, E. coli strain E69
Procedure: The inhibitory effect of am8γCD, am7βCD and am6αCD were tested on live bacteria (E. coli strain E69) with K30 capsular polysaccharide (CPS) and Wza as its transporter. Isolation and staining of the polysaccharides was used. Phenol extraction was carried out in accordance with Orskov (Eur. J. Biochem.; 1980, Stirm, J. Bacteriol. 1967) to isolate the capsular polysaccharide (CPS) and lipopolysaccharide (LPS), followed by carbohydrate staining Pro-Q Emerald 300 glycoprotein stain kit (Molecular Probes) was used for staining of both the CPS and LPS. The staining time, loading volume, oxidation time and washing time after staining were optimised and the following conditions used in the assay:
Loading volume: 3 μL of the stock aqueous polysaccharide solution (see below), mixed with 3 μL of the Laemmli sample buffer (1 mL, Bio-Rad) mixed with 2-mercaptoethanol (950 microliter:50 microliter) before use;
Oxidation time: 30 minutes
Further details of the microbiology and the staining procedures used are as follows: The strains were grown in the absence of or the presence of various concentrations of am8γCD overnight in M9 minimal medium until OD reached ˜0.5. Cells were collected by centrifugation of the culture at 2583×g for 20 minutes at 4° C. In the phenol extraction, volume of phenol/buffer (20 mM Tris.-HCl, 2 mM MgCl2, 20 mM NaCl, pH 8.0) to each tube with a cell pellet is calculated as OD*667 μL. […] By doing this, the cell concentration in each sample was identical so that the changes in CPS and LPS quantity of each cell on average could be compared quantitatively.
Detailed measurement of the inhibitory effect of am8γCD towards K30 polysaccharide translocation was then performed. […] The gel was stained to generate fluorescence signals that correspond to the sugar quantity. […]
The fluorescent intensities of the gels were measured by using the Bio-Rad Universal Hood II. […] The fluorescence intensity of each lane was processed with the Plot Lane function after illumination of the gel with UV light at 302 nm and fluorescent data collection emissions going through an Amber Filter (548-630 nm).

E. coli strain E69 = test: LPS exposure assay, O9a LPS to O9a LPS-specific antibodies (FACS); type: cell-based
Procedure: The direct effect of the inhibition of K30 CPS transport on E. coli strain E69 is the appearance of defects in the capsule layer. This should in turn lead to exposure of O9a LPS at the cell surface. To test this hypothesis, the attachment of rabbit anti-O9a antibodies was quantified by flow cytometry (FACS), by using secondary fluorescent anti-rabbit antibodies. The design of the experiment is depicted schematically in FIG. 4a.
E. coli strains E69 and CWG281 were grown as described above in Example 4 and the OD600 was adjusted to 0.4. The concentrations of cyclodextrin (either am8γCD (compound 13), am6αCD (compound 3) or am7βCD (compound 10)) present in the growth media were 10 nM, 100 nM, 1 μM, 10 μM, 50 μM, 100 μM and 1 mM. 50 μL samples of each were centrifuged at 3,000×g for 10 min to remove the medium, washed with PBS and resuspended in 50 μL PBS. O9a antiserum (0.5 μL) was then added. The mixtures were incubated on ice for 1 h (to compare the effects of am6αCD, am7βCD and am8γCD on the exposure of LPS) or 2 h (for the estimation of minimum effective concentration of am8γCD required to expose LPS to antibodies), followed by centrifugation at 3,000×g for 10 min and washing with PBS. The pellets were resuspended in PBS (50 μL), to which Alexa Fluor 488 Goat Anti-Rabbit IgG secondary antibody (1 μL, Life Technologies, A11034, λex 495 nm, λem 519 nm) was added, followed by incubation for 1 h on ice. The cells were then centrifuged at 3,000×g for 10 min. The pellets were resuspended in PBS (1 mL), followed by analysis by flow cytometry (FACS) using a Becton-Dickinson FACSCalibur. 10,000 cells were analysed for each sample. Fluorescence was measured in the FL1 channel (530 nm).

NC[C@H]1O[C@@H]2O[C@H]3[C@H](O)[C@@H](O)[C@@H](O[C@H]4[C@H](O)[C@@H](O)[C@@H](O[C@H]5[C@H](O)[C@@H](O)[C@@H](O[C@H]6[C@H](O)[C@@H](O)[C@@H](O[C@H]7[C@H](O)[C@@H](O)[C@@H](O[C@H]8[C@H](O)[C@@H](O)[C@@H](O[C@H]9[C@H](O)[C@@H](O)[C@@H](O[C@H]1[C@H](O)[C@H]2O)O[C@@H]9CN)O[C@@H]8CN)O[C@@H]7CN)O[C@@H]6CN)O[C@@H]5CN)O[C@@H]4CN)O[C@@H]3CN [No. 12, Octacis (6-amino-6-deoxy)-γ-cyclodextrin]
Kd (mutant Wza ΔP106-A107; ΔP106-A107, 300 mM KCl, 5 mM HEPES, pH 7.5, +5 mV): 0.044 ± 0.025 µM
Kd (mutant Wza ΔP106-A107; ΔP106-A107, 2M KCl buffer pH 7.5, +3 mV): 7.8 ± 5.2 µM
Kd (mutant Wza Y110G; 300 mM KCl, 5 mM HEPES, pH 7.5, +10 mV): 0.0056 ± 0.0024 µM
Kd (mutant Wza Y110G; 2M KCl buffer pH 7.5, +3 mV): 4.7 ± 4.6 µM
Kd (mutant Wza Y110G/Y373C): 570 ± 520 µM
Inhibition of K30 polysaccharide transport compared with am7βCD and am6αCD ([1]; 1 mM, E. coli strain E69, staining assay): much stronger
LPS fluorescent intensity at saturation ([1]; E. coli strain E69, increasing am8γCD): around 2 times that of the control
IC50 ([1]; Escherichia coli, read-out: IC50 from concentration dependence of the CPS band intensity): 51.2 ± 1 µM
LPS exposure by median fluorescence intensity (E. coli strain E69; 1 μM, antiserum incubation 2 h): 5.1%
LPS exposure by percentage of labelled cells (E. coli strain E69; 1 μM, antiserum incubation 2 h): 44%
LPS exposure by percentage of labelled cells (E. coli strain E69; 50 μM, antiserum incubation 1 h): 36%
LPS exposure by median fluorescence intensity (E. coli strain E69; 50 μM, antiserum incubation 1 h, relative to CWG281 positive control): 4.9%
LPS exposure by percentage of labelled cells (E. coli strain E69; 1 mM, antiserum incubation 1 h): 96%
LPS exposure by median fluorescence intensity (E. coli strain E69; 1 mM, antiserum incubation 1 h, relative to CWG281 positive control): 20%

Source: patent US9963518B2, “Cyclic oligosaccharides for use in the treatment and prevention of bacterial infection” (priority 2011, dated 2018)
